Experimental data as given in ChEMBL document CHEMBL1201862, “PubChem BioAssay data set” (2004).
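Grown in 96-well plates, cells were treated for 48 hours with each compound at five concentrations. Insufficient inhibition: endpoint recorded as highest concentration tested. GI50 is the concentration that inhibits growth by half.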 Calls of active or inactive are those of the source. Rule as the data show it: active = GI50 up to about 1.1 µM and inactive = higher.

Key:
Assay in all cases: NCI tumour cell line growth inhibition, 48 h
[1] = tested on: NCI/ADR-RES
[2] = tested on: PC-3
[3] = tested on: NCI-H23
[4] = tested on: KM12
[5] = tested on: DU-145
[6] = tested on: MDA-MB-231
[7] = tested on: CCRF-CEM
[8] = tested on: Hs-578T
[9] = tested on: SR
[10] = tested on: MDA-MB-435
[11] = tested on: Malme-3M
[12] = tested on: COLO 205
[13] = tested on: HOP-92
[14] = tested on: OVCAR-4
[15] = tested on: OVCAR-8
[16] = tested on: MDA-N

Measured: GI50

CCc1ncc(C(C)(O)c2ccccc2)n1Cc1ccccc1 (stereo not given)
inactive: [1] 37.7 µM | [2] 43.4 µM | [3] 5.56 µM | [4] 31 µM | [5] > 100 µM | [6] 29.3 µM | [7] 48.9 µM | [8] 33.4 µM | [9] 14.8 µM | [10] 22.4 µM | [11] 41 µM | [12] 27.8 µM | [13] 67.3 µM | [14] 35.8 µM | [15] 36.1 µM

CC(C)CCNc1ncnc2[nH]ncc12
inactive: [1] 77.4 µM | [2] > 100 µM | [16] 64.7 µM | [3] > 100 µM | [4] 48.6 µM | [5] > 100 µM | [6] > 100 µM | [8] 46.7 µM | [10] 97.5 µM | [11] > 100 µM | [12] 63.4 µM | [13] 34.2 µM | [14] > 100 µM | [15] > 100 µM

Cn1c(=O)c(Cl)c(N=[N+]=[N-])c2ccccc21
active: [4] 0.0324 µM
inactive: [1] > 100 µM | [2] 78.7 µM | [16] 84.1 µM | [3] > 100 µM | [5] > 100 µM | [6] 60.5 µM | [7] 55.7 µM | [8] > 100 µM | [9] 58.5 µM | [11] 68.9 µM | [12] > 100 µM | [13] 84.1 µM | [14] 55.7 µM | [15] > 100 µM

CC1=CC(=O)CC2(C)CCC(C(C)CC(=O)CC(C)C)CC12 (stereo not given)
inactive: [1] 29.6 µM | [2] 19.5 µM | [3] 35.4 µM | [4] 19 µM | [5] 62.4 µM | [6] 42.8 µM | [7] 23.9 µM | [8] > 100 µM | [9] 20 µM | [10] 20.3 µM | [11] 24.9 µM | [12] 17.3 µM | [13] 31.4 µM | [14] > 100 µM | [15] 24.5 µM

O=c1oc2ccc(-n3c(=O)c4ccccc4c4ccccc4c3=O)cc2c2ccccc12
inactive: [1] > 100 µM | [2] > 100 µM | [16] > 100 µM | [3] > 100 µM | [4] > 100 µM | [6] > 100 µM | [7] > 100 µM | [8] 27 µM | [10] > 100 µM | [11] > 100 µM | [12] > 100 µM | [13] 36.5 µM | [14] > 100 µM | [15] > 100 µM

CN(C)CCCNC(=S)S
inactive: [1] > 100 µM | [2] > 100 µM | [16] > 100 µM | [3] > 100 µM | [4] > 100 µM | [5] > 100 µM | [6] > 100 µM | [7] > 100 µM | [8] > 100 µM | [9] > 100 µM | [10] > 100 µM | [11] > 100 µM | [12] > 100 µM | [13] > 100 µM | [14] > 100 µM | [15] > 100 µM

COC(=O)N[C@H](C(=O)NC(OCc1ccccc1)C1COC(C)(C)O1)C(C)O[Si](C)(C)C(C)(C)C (stereo not given in full)
inactive: [1] > 100 µM | [2] 32.4 µM | [16] > 100 µM | [3] > 100 µM | [5] > 100 µM | [7] > 100 µM | [8] > 100 µM | [9] 26.4 µM | [11] > 100 µM | [12] > 100 µM | [13] 70 µM | [14] > 100 µM | [15] > 100 µM

OC1(c2ccc(Cl)cc2)c2ccc3ccccc3c2C2=N[C@H]3CCCC[C@@H]3N21 (stereo not given in full)
inactive: [1] 1.63 µM | [2] 6.32 µM | [16] 10.6 µM | [3] 37 µM | [4] 5.16 µM | [5] 3.39 µM | [6] 18 µM | [7] 21.7 µM | [8] 1.19 µM | [10] 10.7 µM | [12] 5.81 µM | [13] 16.9 µM | [14] > 100 µM | [15] 1.55 µM
active: [11] 0.284 µM

O=c1c2cc(I)ccc2nc(-c2cccs2)n1O
inactive: [1] 41.1 µM | [2] 52.1 µM | [16] 51.2 µM | [3] 24.2 µM | [4] 32.6 µM | [5] 27.7 µM | [7] 27.7 µM | [9] 33.8 µM | [10] 34.8 µM | [12] > 100 µM | [13] 28.1 µM | [14] 31.6 µM | [15] 38.1 µM
